Earlier results in paper PMC7123690 (HCV: The Journey from Discovery to a Cure, 2018).
Where two headings read alike, the source gives them in different places.

Assays:
HCV GT-1b replicon = conditions: read-out: EC50 GT-1b replicon
[1] = system: bovine viral diarrhea virus
[2] = system: canine parainfluenza virus
GT-1 HCV = conditions: 120 mg dose, 12-h post-dose, GT-1 HCV patients
[3] = not given; remark: listed apart in the source
[4] = dog
[5] = not given; remark: listed apart in the source
[6] = anesthetized rabbits
isolated rabbit hearts = conditions: for effects on HR and SNRT: 60 min perfusion
[7] = system: cardiac ion channel and receptor screens
[8] = rat
[9] = dog; remark: listed apart in the source
HCV NS3/4A GT-1a enzyme = conditions: read-out: IC50 GT-1a enzyme
[10] = RLM
[11] = dog LM
[12] = cynomolgus monkey LMs
[13] = HLM
[14] = system: individual recombinant CYP enzymes
CYP 2D6 = conditions: recombinant CYP 2D6
CYP 2C9 = conditions: recombinant CYP 2C9
CYP 2C19 = conditions: recombinant CYP 2C19
CYP 1A2 = conditions: recombinant CYP 1A2
[15] = not given; remark: listed apart in the source
[16] = P-gp knockout mice
[17] = rat, dog, and cynomolgus monkey plasma
[18] = system: GT-1 and GT-4 replication; conditions: GT-1 and GT-4 replicons
HCV = conditions: combined with IFN-α, ribavirin (52), 2 and 3
[19] = not given; remark: listed apart in the source
HCV GT-1 = HCV GT-1 patients
[20] = 60-min perfusion protocol, 10 μM, similar to vehicle control

C=C[C@@H]1C[C@]1(NC(=O)[C@@H]1C[C@@H](Oc2nccc3cc(OC)ccc23)CN1C(=O)[C@@H](NC(=O)OC(C)(C)C)C(C)(C)C)C(=O)NS(=O)(=O)C1CC1 [Compound 30]
EC50 (HCV GT-1b replicon): 12 nM | activity in cell culture replication assay [1]: inactive | activity in cell culture replication assay [2]: inactive | activity in cell culture replication assay (HIV-1): inactive | terminal t 1/2 (NHVs, single oral doses 10-120 mg): 4 to 8 h | effects on cardiac function (electrocardiographic changes) (one NHV and one HCV-infected patient, 120 mg dose): transient mild bradycardia, PR interval prolongation, and junctional rhythm disturbances | mean decline in viral load (GT-1 HCV): 1.8 log10 IU/mL | observed cardiovascular effects ([3]; conscious telemetrized dogs, two 15 mpk doses): a reduction in heart rate and prolongation of the PR interval | plasma exposure at which CV effects occurred ([3]; estimated from non-telemeterized animals): approximately 12 μM | affinity for plasma proteins [4]: 98.2% | affinity for plasma proteins ([5]; human): 99.1% | decline in HR ([6]; IV 1, 3 and 10 mpk each infused over 5 min): 32 bpm | reduction in blood pressure from baseline ([6]; not drug related, also seen in vehicle controls): 14–23 mmHg | decline in HR (isolated rabbit hearts; 3 μM, ~12 min perfusion): −15 bpm | decline in HR (isolated rabbit hearts; 10 μM, ~12 min perfusion): −23 bpm | effects on atrioventricular conduction time or QRS interval (isolated rabbit hearts; 0.3-10 μM): no effects | increase in SNRT (isolated rabbit hearts; 3 and 10 μM, ~12 min perfusion): ≥ 425 ms | effects on HR and SNRT (isolated rabbit hearts; 0.1 μM): absent | effects on HR and SNRT (isolated rabbit hearts; 0.3 μM): attenuated | effects on HR and SNRT (isolated rabbit hearts; 1 μM): effects on HR and SNRT were observed | % HR change (isolated rabbit hearts; perfusion concentration 10 μM): −25% | outcome of cardiac ion channel and receptor screens [7]: failed to identify a biochemical target | oral bioavailability [8]: 18% | plasma t 1/2 [8]: 4.4 h | plasma level 24-h post-dose ([8]; oral 20 mpk): 8 nM | oral bioavailability ([9]; PO, 1 mpk): 23%

C=C[C@@H]1C[C@]1(NC(=O)[C@@H]1C[C@@H](Oc2ncc(OC)c3ccc(Cl)cc23)CN1C(=O)[C@@H](NC(=O)OC(C)(C)C)C(C)(C)C)C(=O)NS(=O)(=O)C1CC1 [Compound 1, Asunaprevir]
IC50 (HCV NS3/4A GT-1a enzyme): 1 nM | EC50 (HCV GT-1b replicon): 6 nM | turnover in LMs [10]: 4.9 pmol/min/mg | turnover in LMs [11]: 4.7 pmol/min/mg | turnover in LMs [12]: 50 ± 22 pmol/min/mg | turnover in LMs [13]: 5.8 ± 1.8 | plasma protein binding ([5]; human plasma): 98.8% | maximal increase in SNRT (isolated rabbit hearts; [20]): 14% | maximal reduction of heart rate (isolated rabbit hearts; [20]): 10% | % HR change (isolated rabbit hearts; perfusion concentration 10 μM): −4% | % SNRT change (isolated rabbit hearts; perfusion concentration 10 μM): 5% | metabolic turnover by recombinant CYP enzymes [14]: significant metabolic turnover only by CYP 3A4 | IC50 (CYP 2D6): > 40 µM | IC50 (CYP 2C9): > 40 µM | IC50 (CYP 2C19): > 40 µM | IC50 (CYP 1A2): > 40 µM | IC50 (CYP 3A4; CYP 3A4, substrate probe 7-benzyloxy-trifluoromethylcoumarin (BFC)): 29 µM | IC50 (CYP 3A4; CYP 3A4, substrate probe benzyloxyresorufin (BZR)): 8 µM | IC50 (CYP 3A4; CYP 3A4, substrate probe midazolam): 27 µM | permeability in PAMPA ([15]; pH = 5.5): > 473 nm/s | permeability in PAMPA ([15]; pH = 7.4): > 492 nm/s | oral bioavailability [16]: > 100% | plasma protein binding [17]: 97.2–98.8% | EC50 [18]: < 5 nM | activity in combination studies (HCV): additive or synergistic activity | adverse events (AEs) ([19]; NHVs, single doses 10-1,200 mg oral suspension): generally mild to moderate and comparable to the placebo controls | cardiac safety analysis ([19]; short duration SAD study): no evidence of an increased risk of adverse cardiac events | mean plasma HCV RNA decline (HCV GT-1; single 50 mg dose): 0.64 log10 IU/mL | mean plasma HCV RNA decline (HCV GT-1; single 200 mg dose): 2.26 log10 IU/mL | mean plasma HCV RNA decline (HCV GT-1; single 600 mg dose): 2.87 log10 IU/mL | direct excretion into the bile [8]: 9 % of the dose | liver level 24-h post-dose ([8]; oral): 15.2 µM | direct excretion into the bile [9]: 22 % of the dose
